Legend:
[1] = system: GIST-T1-T670I mouse tumor model; test: Tumor-grafted mouse model established with GIST-T1-T670I cells; assay type: in vivo; conditions: oral, every day
Method: (§1) In this example Compound 1 and Compound 2 were respectively tested in TEL-cKIT/T670I-BaF3, TEL-cKIT/Y823D-BaF3, TEL-cKIT/D820G-BaF3 and GIST-T1-T670I mouse models.
(§2) Experimental protocols were as follows. • (1) Bal b/c female mice aged 4-6 weeks were purchased from Beijing Weitong Lihua Laboratory Animal Co., Ltd., and the mice were raised in an SPF laboratory. The drinking water and padding were sterilized by autoclaving. All operations on mice were conducted under aseptic conditions. • (2) About 5×10^6 TEL-cKIT/T670I-BaF3, TEL-cKIT/Y823D-BaF3, TEL-cKIT/D820G-BaF3 or GIST-T1-T670I cells were respectively injected subcutaneously onto the left back of all mice on Day 0. • (3) From Day 6, for the TEL-cKIT/T670I-BaF3 mouse model the corresponding mice were administrated orally every day with methylcellulose (HKI) as the vehicle (5 mice); with Compound 1 and Compound 2 at a dosage of 10 mg/kg, 20 mg/kg, 40 mg/kg, 100 mg/kg mouse weight (5 mice in each group); and with Sunitnib (purchased from MedChemExpress, China) at a dosage of 40 mg/kg mouse weight (5 mice). From day 6, for the TEL-cKIT/Y823D-BaF3 and TEL-cKIT/D820G-BaF3 mouse models the corresponding mice were administrated orally every day with methylcellulose (HKI) as the vehicle (5 mice); with Compound 1 and Compound 2 at a dosage of 40 mg/kg, 80 mg/kg mouse weight (5 mice in each group); and with Sunitnib (purchased from MedChemExpress, China) at a dosage of 40 mg/kg mouse weight (5 mice). From day 15, for the GIST-T1-T670I mouse model the corresponding mice were administrated orally every day with methylcellulose (HKI) as the vehicle (5 mice); with Compound 1 and Compound 2 at a dosage of 20 mg/kg, 40 mg/kg, 80 mg/kg mouse weight (5 mice in each group); and with Sunitnib at a dosage of 40 mg/kg mouse weight (5 mice). • (4) From day 6 (TEL-cKIT/T670I-BaF3, TEL-cKIT/Y823D-BaF3, TEL-cKIT/D820G-BaF3 mouse model) and From day 15 (GIST-T1-T670I mouse model), respectively, the length/width of the subcutaneous tumor were measured with a vernier caliper every day and the body weight of the mouse was recorded every day so as to determine the effects of Compound 1 and Compound 2 on the body weight and tumor size of the mice, respectively. • (5) The mice were sacrificed on Day 11 after administration for the TEL-cKIT/T670I-BaF3 mouse model, on Day 9 after administration for the TEL-cKIT/Y823D-BaF3 and TEL-cKIT/D820G-BaF3 mouse models, and on Day 28 after administration for the GIST-T1-T670I mouse model. The subcutaneous tumors were taken out, and the tumors were weighed and compared. • (6) The growth trend of subcutaneous tumors was calculated and the tumor size was calculated according to: length×width×width/2 mm^3.

[2] = system: TEL-cKIT/Y823D-BaF3 mouse tumor model; test: Tumor-grafted mouse model established with TEL-cKIT/Y823D-BaF3 cells; assay type: in vivo; conditions: oral, every day
Method: as §1, §2

Row | SMILES | inhibitory effects against tumor in mice ([1]; 40 mg/kg) | influence on mice weight [1] | inhibitory effects against tumor in mice ([2]; 40 mg/kg) | influence on mice weight [2] | tumor inhibition rate ([1]; 40 mg/kg) | tumor inhibition rate ([2]; 40 mg/kg)
1 | COc1cc2nccc(Oc3ccc(NC(=O)Cc4ccc(C)c(C(F)(F)F)c4)cc3)c2cc1OC [Example 1, N-(4-((6,7-dimethoxyquinolin-4-yl)oxy)phenyl)-2-(4-methyl-3-(trifluoromethyl)phenyl)acetamide] | excellent inhibitory effects against tumor in mice | without significant influence on mice weight | excellent inhibitory effects against tumor in mice | without significant influence on mice weight |  | 
2 | COc1cc2nccc(Oc3ccc(NC(=O)Cc4ccc(Cl)c(C(F)(F)F)c4)cc3)c2cc1OC [Example 2, N-(4-((6,7-dimethoxyquinolin-4-yl)oxy)phenyl)-2-(4-chloro-3-(trifluoromethyl)phenyl)-acetamide] | excellent inhibitory effects against tumor in mice | without significant influence on mice weight | excellent inhibitory effects against tumor in mice | without significant influence on mice weight | ≥ 80% | ≥ 80%

Reference: patent US12404244B2, “Pan-KIT kinase inhibitor having quinoline structure and application thereof” (Tarapeutics Science Inc., priority 2018, dated 2025)
